The record followed here is ChEMBL document CHEMBL3808329, “Increase of rutin antioxidant activity by generating Maillard reaction products with lysine” (Bioorg Med Chem Lett, 2016).

A short description of data set [1]: Antioxidant activity assessed as DPPH scavenging activity at 20 to 100 ug/ml after 4 hrs in presence of lysine by spectrophotometric method. The format is physicochemical. (In general: DPPH is a stable violet radical that fades when it is reduced.)
Data set [2] is described as follows: Antioxidant activity assessed as DPPH scavenging activity at 20 to 100 ug/ml and 120 degC after 4 hrs by spectrophotometric method. The format is physicochemical.
Data set [3] can be described thus: Drug metabolism assessed as increase in total phenolics at 120 degC after 4 hrs in presence of lysine by Folin-Ciocalteu method. It is filed as physicochemical.
Data set [4] concerns HepG2. Put plainly: Antioxidant activity in human HepG2 cells assessed as reduction in Cu2+ induced oxidative stress at 50 to 200 ug/ml preincubated for 30 mins at 120 degC using DCFH-DA in presence of lysine by fluorescence assay. The format is functional, cell-based.
Data set [5] can be described thus: Metal chelating activity assessed as Cu2+ reducing activity at 120 degC after 4 hrs in presence of lysine. It is filed as physicochemical.
The nature of data set [6]: Antioxidant activity assessed as DPPH scavenging activity at 60 ug/ml and 120 degC after 4 hrs by spectrophotometric method. The format is physicochemical.
The nature of data set [7]: Retention time of compound by HPLC method. It is filed as physicochemical.
Data set [8] deals with HepG2. Put plainly: Antioxidant activity in human HepG2 cells assessed as reduction in Cu2+ induced oxidative stress at 50 to 200 ug/ml preincubated for 30 mins using DCFH-DA by fluorescence assay. It is filed as functional, cell-based.
The subject of data set [9] is HepG2. Put plainly: Antioxidant activity in human HepG2 cells assessed as increase in Cu/Zn SOD activity at 200 ug/ml at 120 degC after 4 hrs relative to control. It is filed as functional, cell-based.
Data set [10] concerns HepG2. Briefly: Induction of Cu/Zn SOD gene expression in human HepG2 cells at 100 to 300 ug/ml at 120 degC after 4 hrs in presence of lysine by western blot analysis. The format is functional, cell-based.
Data set [11] relates to HepG2. Briefly: Antioxidant activity in human HepG2 cells assessed as reduction in Cu2+ induced oxidative stress at 50 to 200 ug/ml preincubated for 30 mins in presence of lysine using DCFH-DA by fluorescence assay. It is filed as functional, cell-based.
Data set [12] in a line: Antioxidant activity assessed as DPPH scavenging activity at 60 to 100 ug/ml and 120 degC after 4 hrs in presence of lysine by spectrophotometric method. It is filed as physicochemical.
In data set [13] the test system is HepG2. Briefly: Antioxidant activity in human HepG2 cells assessed as increase in Cu/Zn SOD activity at 200 ug/ml in presence of lysine at 120 degC after 4 hrs relative to control. The format is functional, cell-based.

The source made the active and inactive calls. No cut-off for these calls is given here.

Consider `C[C@@H]1O[C@@H](N[C@@H](CCCCN)C(=O)O)[C@H](O)[C@H](O)[C@H]1O`, for which the outcome in data set [1], in [2] and in data set [5] was Active. The Drug metabolism result in data set [3] is given as “metabolite_detected”. For the same compound, the result with HepG2 [4] was Active.
As for `NCCCC[C@H](N[C@@H]1O[C@H](CO)[C@@H](O)[C@H](O)[C@H]1O)C(=O)O`, the outcome in data set [1], in data set [2] and in [5] was Active. In data set [3], the Drug metabolism entry is listed as “metabolite_detected”. Moreover, the result with HepG2 [4] was Active.
Regarding `O=C1O[C@H]([C@@H](O)CO)C(O)=C1O` [ASCORBIC ACID], the Activity in [6] is listed as 90.6%.
Compound `NCCCC[C@H](N)C(=O)O` [LYSINE] gave a Retention_time in [7] of 2.01 min.
With `C[C@@H]1O[C@@H](OC[C@H]2O[C@@H](Oc3c(-c4ccc(O)c(O)c4)oc4cc(O)cc(O)c4c3=O)[C@H](O)[C@@H](O)[C@@H]2O)[C@H](O)[C@H](O)[C@H]1O` [RUTIN], the Retention_time in [7] is given as 8.94 min. Further, the Activity entry in data set [1] is “Dose-dependent effect”; in data set [12], “Active”; in data set [5], “Active”. Moreover, the Drug metabolism result in data set [3] is recorded as “metabolite_detected”. Moreover, the inhibition result with HepG2 [8] and in the data set with HepG2 [11] was “inactive” in each case. For the same compound, the result in the data set with HepG2 [4], with HepG2 [9], with HepG2 [10] and in the data set on HepG2 [13] was Active.
